Results reported in publication PMC9283466, “In silico identification of two peptides with antibacterial activity against multidrug-resistant Staphylococcus aureus” (NPJ Biofilms and Microbiomes, 2022).
Bridge positions count the residues as written; N and C are the ends. Peptide text beside a SMILES is read from it.

Tests used:
MRSA USA300 biofilms = assay: Anti-biofilm activity, 96-well biofilm model (crystal violet); type: cell-based, Staphylococcus aureus; conditions: established MRSA USA300 biofilms; for reduction in biofilm formation: sub-MIC (0.25x and 0.5 x MIC) and MIC concentrations; for biofilm reduction: supra-MIC concentrations (2x and 4x MIC)
Procedure: The ability of HG2 and HG4 to disrupt established S. aureus biofilms was measured using a 96-well format as described by ref. [14]. MRSA USA300 cultures grown overnight in Brain Heart Infusion (BHI) broth was resuspended to OD600nm = 0.02 and grown without aeration at 37 °C in 96-well tissue culture plates for an additional 24 h. The planktonic cells were removed by three PBS (phosphate-buffered saline) washes. Thereafter, fresh BHI broth containing peptides HG2 or HG4 at sub- and supra-MIC concentrations (0.5, 1, 2 and 4x MIC) was added to wells containing adherent cells and incubated without shaking for another 24 h. Planktonic cells were again removed by three PBS washes. Biofilms were fixed with methanol for 20 min, stained with 0.4% (w/v) crystal violet solution for 20 min and re-solubilised with 33% (v/v) acetic acid. The optical density of re-solubilised biofilms was measured at 570 nm in a microplate spectrophotometer. The percentage biofilm reduction was calculated using the equation below: Percentagebiofilmreduction(%)=PositiveControl−ODofSample/PositiveControl−NegativeControl The plot showing anti-biofilm activity (% biofilm reduction) was generated using the ‘ggplot2’ package[53] in R (v 4.1.1)[54] with log-linear regression performed using lm() function.

MRSA USA300 cells = assay: ATP depletion assay; type: cell-based, Staphylococcus aureus; conditions: P = 0.018 (HG2) and 0.003 (HG4)
Procedure: Adenosine triphosphate (ATP) drives many cellular and metabolic processes and can be used to ascertain the integrity of cells. […] Briefly, in a clear 96-well plate, samples and ATP standard provided with the kit were added in a reaction mix containing ATP assay buffer, ATP Probe and Converter and Developer mix. The reaction mix was incubated in the dark at room temperature for 30 min. Absorbance (570 nm0 was then measured in a microplate spectrophotometer. The background ATP levels obtained from samples and ATP standards were autocorrected by subtracting ATP levels from blank treatments. The amount of ATP in unknown samples was determined from the ATP standard curve and calculated using the formula in the instruction manual. All measurements were performed in triplicates.

[1] = tested on: S. aureus MRSA USA300 cells; assay: Transcriptomic analysis (RNA-Seq, DESeq2); type: cell-based, Staphylococcus aureus; conditions: MIC concentration for 60 min; p <0.05, abs(log2FC)> 2
Procedure: The mechanism of action and effects of HG2 and HG4 against S. aureus MRSA USA300 was investigated using transcriptomics analysis[57],[58]. […] The increased sample volume and limited treatment time of 60 min served to maintain the quality and yield of RNA. Untreated cells served as control. Cells were washed and resuspended in PBS and then RNAprotect Bacteria Reagent (QIAGEN, Hilden, Germany) was added and pelleted. This was followed by incubation in Tris-EDTA buffer containing Proteinase K and Bacterial Lysis Mix (Mutanolysin and Lysozyme) at room temperature for 10 min addition. Thereafter, RNA extraction was performed using the Qiagen RNeasy Plus Mini Kit following the manufacturer’s protocol (Qiagen, Manchester, UK). RNA was quantified using a Qubit™ fluorometer with a broad range RNA kit (Invitrogen, USA), according to the manufacturer’s instructions. All experiments were carried out in triplicates. […]
Analysis of sequencing data was carried out using the Geneious Prime® (2021.1.1) software (Biomatters Ltd, New Zealand)[59]. Firstly, all raw paired-end fastq reads passing quality check by FastQC v0.11.9 were mapped to the reference genome (Staphylococcus aureus subsp. aureus USA300_TCH1516 downloaded from the NCBI website), using Geneious RNA-Seq mapper. […]

G. mellonella larvae = tested on: G. mellonella larvae; set-up: species or system Galleria mellonella; conditions: in vivo
Procedure: All procedures of larvae rearing, injection and G. mellonella killing assays were conducted using validated methods. In each assay, ten larvae weighing between 280–300 mg each were randomly selected. Larvae with the previous melanisation of the cuticle were excluded from the experiments. All experiments were designed in at least four experimental and biological replicates.
Firstly, we evaluated the putative toxic effect of the peptides HG2 and HG4 in G. mellonella. […] After injection with peptides, the larvae were maintained at 37 °C in the dark. Phenotypic aspects such as melanisation and mobility of the larvae as well as survival were monitored every 24 for 96 h. Larvae not inoculated with AMPs were used as controls.

[2] = tested on: eLUCidate Raw 264.7 NF-kB reporter cell line

## CC[C@H](C)[C@H](NC(=O)[C@H](CC(C)C)NC(=O)[C@H](CC(C)C)NC(=O)[C@H](CC(C)C)NC(=O)[C@H](CCCCN)NC(=O)[C@H](CCCCN)NC(=O)[C@@H](N)CCSC)C(=O)N[C@@H](CC(C)C)C(=O)N[C@@H](Cc1ccccc1)C(=O)N[C@H]1CSSC[C@@H](C(=O)N[C@@H](CCCCN)C(=O)N[C@@H](CCCCN)C(=O)N[C@@H](C)C(=O)N2CCC[C@H]2C(N)=O)NC(=O)CNC(=O)[C@H](C)NC(=O)[C@H](CC(C)C)NC(=O)[C@H](C)NC(=O)[C@H](CC(C)C)NC(=O)[C@H](C)NC(=O)[C@H](CC(C)C)NC1=O [HG2] (H-MKKLLLILFCLALALAGCKKAP-NH2; disulfide 10-18; N-terminus assumed)
MRSA USA300 biofilms
  reduction in biofilm formation: less than 50%
  biofilm reduction: ≥ 50%
MRSA USA300 cells
  effect on ATP concentration: decrease in ATP concentration
[1]
  number of differentially expressed genes (DEGs): 114
G. mellonella larvae
  larvae survival rate, uninfected larvae: 100%
  toxic effect in G. mellonella: no toxic effect
[2]
  toxicity against reporter cell line (resazurin assay): no toxicity

## CC[C@H](C)[C@H](NC(=O)[C@H](CC(C)C)NC(=O)[C@H](CC(C)C)NC(=O)[C@H](C)NC(=O)CNC(=O)CNC(=O)[C@@H](NC(=O)[C@@H](NC(=O)[C@H](CC(C)C)NC(=O)[C@H](C)NC(=O)[C@H](CC(C)C)NC(=O)CNC(=O)[C@H](CC(C)C)NC(=O)[C@@H](N)C(C)C)[C@@H](C)CC)C(C)C)C(=O)N[C@@H](CCCCN)C(=O)N[C@@H](CCCCN)C(=O)N[C@@H](CCCCN)C(=O)N[C@@H](CCC(N)=O)C(=O)N[C@@H](C)C(=O)N[C@@H](CCCCN)C(=O)N[C@@H](CO)C(N)=O [HG4] (H-VLGLALIVGGALLIKKKQAKS-NH2; N-terminus and C-terminus assumed)
MRSA USA300 biofilms
  reduction in biofilm formation: less than 50%
  biofilm reduction: ≥ 50%
MRSA USA300 cells
  effect on ATP concentration: decrease in ATP concentration
[1]
  number of differentially expressed genes (DEGs): 123
G. mellonella larvae
  larvae survival rate, uninfected larvae: 100%
  toxic effect in G. mellonella: no toxic effect
[2]
  toxicity against reporter cell line (resazurin assay): no toxicity
